The source of these data is PubChem BioAssay (NCI).

The structures appear in SMILES notation.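 Briefly, cells in 96-well plates were exposed to five compound concentrations for 48 h, and endpoints were estimated by linear interpolation. Here, GI50 denotes the concentration required for 50% inhibition of growth. TGI marks complete inhibition of growth.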

Some test systems named below: MALME-3M melanoma; NCI-H226 lung; OVCAR-4 ovarian; NCI/ADR-RES ovarian; T-47D breast; RXF 393 renal; MDA-MB-231 breast; HCT-15 colon; A549 NSCLC; U251 CNS.
What all share (test): NCI tumour cell line growth inhibition, 48 h

For `O=C(Nc1cc(Cl)ccc1O)c1cccc(Nc2ccnc(C(F)(F)F)c2)c1`, the GI50 in the assay with MALME-3M melanoma was 2.22 µM; in the assay with NCI-H226 lung, 4.84 µM; in the assay with OVCAR-4 ovarian it was 2.32 µM; with NCI/ADR-RES ovarian, 2.67 µM; in the assay with T-47D breast it was 1.02 µM; with RXF 393 renal it was 11 µM. Also, the GI50 in the assay on MDA-MB-231 breast was 2.63 µM; in the assay with HCT-15 colon it was 2.61 µM; with A549 NSCLC, 2.94 µM; with U251 CNS, 3.05 µM. The TGI with MALME-3M melanoma was found to be 11.2 µM; in the assay with NCI-H226 lung it was 39.5 µM; with OVCAR-4 ovarian it was 17.4 µM; with NCI/ADR-RES ovarian, 14.1 µM; in the assay on T-47D breast, 7.51 µM; with RXF 393 renal it was 29.1 µM. Further, the TGI in the assay on MDA-MB-231 breast stood at 26.7 µM; with HCT-15 colon, 42.1 µM; with A549 NSCLC it was 66 µM; in the assay with U251 CNS it was 83.4 µM.
For the compound `O=C1Cc2cc(CCn3cncn3)c(Cl)cc2N1`, the GI50 is greater than 100 µM in the assay on MALME-3M melanoma; greater than 100 µM in the assay with NCI-H226 lung; greater than 100 µM in the assay with OVCAR-4 ovarian; 5.85 µM in the assay with NCI/ADR-RES ovarian; greater than 100 µM in the assay on T-47D breast; 7.48 µM in the assay with RXF 393 renal. Also, the GI50 in the assay on MDA-MB-231 breast was 4.66 µM; with HCT-15 colon, 9.59 µM; in the assay on A549 NSCLC it was 16.5 µM; in the assay with U251 CNS, 14.5 µM. The TGI with MALME-3M melanoma, in the assay with NCI-H226 lung, in the assay with OVCAR-4 ovarian, in the assay on NCI/ADR-RES ovarian, with T-47D breast and in the assay with RXF 393 renal was greater than 100 µM in each case. In addition, the TGI in the assay with MDA-MB-231 breast, with HCT-15 colon, in the assay on A549 NSCLC and with U251 CNS was greater than 100 µM throughout.
For the compound `COc1ccccc1[As]=[As]c1ccccc1OC` (stereo not given), the GI50 in the assay on MALME-3M melanoma is 0.0443 µM; in the assay with NCI-H226 lung, 0.0723 µM; in the assay on OVCAR-4 ovarian it was 0.0372 µM; in the assay on NCI/ADR-RES ovarian, 0.0763 µM; in the assay on T-47D breast, 0.0366 µM; with RXF 393 renal, 0.0257 µM. The GI50 in the assay on MDA-MB-231 breast is 0.0564 µM; in the assay with HCT-15 colon, 0.0288 µM; with A549 NSCLC it was 0.0973 µM; with U251 CNS, 0.0145 µM. Moreover, the TGI with MALME-3M melanoma stood at 0.145 µM; in the assay on NCI-H226 lung, 0.21 µM; in the assay on OVCAR-4 ovarian, 0.146 µM; in the assay on NCI/ADR-RES ovarian, 0.306 µM; in the assay on T-47D breast, 0.199 µM; in the assay with RXF 393 renal, 0.0644 µM. Moreover, the TGI was determined as 0.182 µM with MDA-MB-231 breast, 0.118 µM with HCT-15 colon, 0.289 µM in the assay with A549 NSCLC and 0.0311 µM in the assay with U251 CNS.
With `Oc1ccc(C(O)(c2ccccc2)c2ccccc2)c2ccccc12`, the TGI in the assay on MALME-3M melanoma is 23.2 µM; with NCI-H226 lung, 9.8 µM; with OVCAR-4 ovarian it was 20.7 µM; in the assay on NCI/ADR-RES ovarian it was 6.58 µM; with T-47D breast it was 24 µM; in the assay with RXF 393 renal it was greater than 100 µM. Moreover, the TGI in the assay on MDA-MB-231 breast is 5.27 µM; with HCT-15 colon it was 2.9 µM; in the assay with A549 NSCLC it was 11.9 µM; with U251 CNS, 2.91 µM.
`c1ccc(Oc2ccc(Nc3ncc(-c4ccccc4)o3)cc2)cc1`: the GI50 in the assay with MALME-3M melanoma, with NCI-H226 lung, with OVCAR-4 ovarian, in the assay with NCI/ADR-RES ovarian, with T-47D breast and with RXF 393 renal was greater than 25 µM in each case. For the same compound, the GI50 with MDA-MB-231 breast, in the assay on HCT-15 colon, with A549 NSCLC and in the assay with U251 CNS was greater than 25 µM each time. The TGI in the assay on MALME-3M melanoma, in the assay with NCI-H226 lung, in the assay with OVCAR-4 ovarian, in the assay on NCI/ADR-RES ovarian, in the assay on T-47D breast and with RXF 393 renal was greater than 25 µM each time. Besides, the TGI in the assay with MDA-MB-231 breast, with HCT-15 colon, in the assay on A549 NSCLC and in the assay on U251 CNS was greater than 25 µM throughout.
For `Fc1ccc(-c2nn3ccccc3c2-c2ccncc2)cc1`, the GI50 in the assay with MALME-3M melanoma is greater than 25 µM; with NCI-H226 lung, greater than 25 µM; in the assay with OVCAR-4 ovarian, greater than 25 µM; in the assay with NCI/ADR-RES ovarian, greater than 25 µM; with T-47D breast it was greater than 21 µM; with RXF 393 renal, greater than 25 µM. Further, the GI50 in the assay on MDA-MB-231 breast, in the assay on HCT-15 colon, in the assay on A549 NSCLC and in the assay on U251 CNS was greater than 25 µM in each case. For the same compound, the TGI in the assay with MALME-3M melanoma, with NCI-H226 lung, in the assay with OVCAR-4 ovarian, in the assay on NCI/ADR-RES ovarian, in the assay with T-47D breast and in the assay on RXF 393 renal was greater than 25 µM throughout. For the same compound, the TGI in the assay on MDA-MB-231 breast, with HCT-15 colon, with A549 NSCLC and in the assay with U251 CNS was greater than 25 µM throughout.
Regarding `Clc1ccc2c(c1)N(C1CCCN(Cc3ccccc3)C1)c1ccccc1S2` (stereo not given), the GI50 was 3.88 µM with MALME-3M melanoma; 22.6 µM in the assay with NCI-H226 lung; 18 µM in the assay with OVCAR-4 ovarian; 3.24 µM with NCI/ADR-RES ovarian; 7.4 µM in the assay with T-47D breast; 3.69 µM with RXF 393 renal. For the same compound, the GI50 with MDA-MB-231 breast was 3.35 µM; with HCT-15 colon, 4.12 µM; with A549 NSCLC it was 4.94 µM; in the assay with U251 CNS it was 4.31 µM. Further, the TGI with MALME-3M melanoma is 39.9 µM; in the assay with NCI-H226 lung, greater than 100 µM; with OVCAR-4 ovarian it was greater than 100 µM; in the assay with NCI/ADR-RES ovarian it was 13.7 µM; in the assay with T-47D breast, greater than 100 µM; in the assay with RXF 393 renal, 25.3 µM. The TGI was 13.1 µM in the assay with MDA-MB-231 breast, greater than 100 µM with HCT-15 colon, greater than 100 µM in the assay on A549 NSCLC and greater than 100 µM with U251 CNS.
